Data from patent publication US20060052414A1, “Compositions and methods for treating or preventing Hepadnaviridae infection” (priority 2004, published 2006).
Read-outs that look alike come from different tables or passages of the source.

What was measured:
HepG 2.2.15 = experiment: Cytotoxicity, neutral red dye uptake; conditions: for Cytotoxicity - Neutral Red Dye Uptake: 24 hours after final treatment
Method: (§1) Cytotoxicity analyses were also performed in order to assess whether any observed antiviral effects were due to a general effect on cell viability. This analysis was performed on 96-well plates seeded at the same time and with the identical pool of stock cells used for the antiviral assay described in Example 1. […] Cellular uptake of neutral red dye was used to determine the relative level of toxicity 24 hours after the final treatment. A cell that is viable will take up the neutral red dye, while a dead cell will not. The absorbance of internalized dye at 510 nm (A510) was used for quantitative analysis. Values are presented as a percentage of the average A510 values (±standard deviation, SD) in 9 separate cultures of untreated cells on the same plate.
(§2) The EC90 and CC50 values were used to calculate a Selectivity Index (SI, CC50/EC90) because at least a […] reduction in HBV levels is considered as having achieved statistical significance in this assay (see Korba & Gerin, Antiviral Res. 19:55-70,1992).

HBV = experiment: Anti-HBV antiviral assay: extracellular HBV virion DNA by Southern blot in HepG 2.2.15 cultures; assay type: cell-based, hepatitis B virus
Method: Confluent cultures of chronic HBV producing cell line HepG 2.2.15 in 96-well tissue culture plates in RPMI 1640 medium with 2% fetal bovine serum were used for the antiviral analysis of castanospermine esters (see Korba and Gerin, Antivir. Res. 19:55-70, 1992).
Extracellular HBV nucleic acid levels were measured 24 hours after the last treatment by Southern blot hybridization (quantified via densitometry using equipment and methods known in the art) as a measure of the number of HBV virions produced.
Based on the hybridization analysis, about 1.0 pg extracellular HBV DNA/ml of culture medium is roughly equivalent to about 3×10^5 viral particles/ml. Values ±standard deviations (SD) were calculated by linear regression analysis using data combined from all treated cultures. SDs were calculated using the standard error of regression generated from the linear regression analyses.

[1] = Cytotoxicity, neutral red dye uptake; conditions: human
Method: as §1, §2

[2] = Hepatitis B virus, HepG2.2.15, Table 5, monotherapy, or celgosivir concentration in combination with ADV

SMILES: CCCC(=O)O[C@H]1CN2CC[C@H](O)[C@@H]2[C@@H](O)[C@@H]1O [Celgosivir, [1S-(1α,6β,7α,8β,8aβ)]-octahydro-1,6,7,8-indolizinetetrol 6-butanoate]
- CC50 (HepG 2.2.15; Table 5, 2-fold reduction in neutral red dye uptake, value for the drug named, >1000 = highest concentration tested): > 1 mM
- HBV Virion DNA Levels (HBV; 15 μM (first panel), 9 daily doses, untreated cells 121 pg/mL): 113 ± 9 pg/mL culture medium
- HBV Virion DNA Levels (HBV; 15 μM celgosivir (third panel; combinations plus ADV at the molar ratio)): 111 ± 8 pg/mL culture medium
- HBV Virion DNA Levels (HBV; 50 μM (first panel), 9 daily doses, untreated cells 121 pg/mL): 56 ± 4 pg/mL culture medium
- HBV Virion DNA Levels (HBV; 50 μM celgosivir (third panel; combinations plus ADV at the molar ratio), assay sensitivity 0.1 pg/mL): 53 ± 6 pg/mL culture medium
- HBV Virion DNA Levels (HBV; 150 μM (first panel), 9 daily doses, untreated cells 121 pg/mL): 17 ± 2 pg/mL culture medium
- HBV Virion DNA Levels (HBV; 150 μM celgosivir (third panel; combinations plus ADV at the molar ratio), assay sensitivity 0.1 pg/mL): 16 ± 2 pg/mL culture medium
- HBV Virion DNA Levels (HBV; 300 μM, 9 daily doses, extracellular, 24 hours after last treatment, untreated cells 121 pg/mL): 8 ± 1 pg/mL culture medium
- EC50 (HBV; Table 3, concentration giving 2-fold reduction in HBV DNA vs untreated cultures, read-out: EC50): 28000 ± 1400 nM
- EC90 (HBV; Table 3, concentration giving 10-fold reduction in HBV DNA vs untreated cultures, read-out: EC90): 158000 ± 22000 nM
- EC50 (HBV; Table 5, monotherapy, or celgosivir concentration in combination with ADV, read-out: EC50): 24000 ± 1200 nM
- EC90 (HBV; Table 5, monotherapy, or celgosivir concentration in combination with ADV, read-out: EC90): 147000 ± 15000 nM
- HBV virion production by the 2.2.15 cells, in words (HBV; summary of Tables 2 and 3): caused a reduction in HBV virion production

SMILES: Nc1ccn([C@@H]2CS[C@H](CO)O2)c(=O)n1 [Compound 3TC, (−)2′,3′-dideoxy, 3′-thiacytidine]
- CC50 [1]: 2.34 ± 0.089 mM
- EC50 (HBV; Hepatitis B virus, HepG2.2.15, Table 3, concentration giving 2-fold reduction in HBV DNA vs untreated cultures): 58 ± 4 nM
- EC90 (HBV; Hepatitis B virus, HepG2.2.15, Table 3, concentration giving 10-fold reduction in HBV DNA vs untreated cultures): 177 ± 15 nM
- EC50 (HBV; [2]): 58 ± 4 nM
- EC90 (HBV; [2]): 177 ± 15 nM
- Selectivity Index (CC50/EC90) (HBV; Table 5, monotherapy, or celgosivir in combination with ADV): 11,709

SMILES: CC(C)(C)C(=O)OCOP(=O)(COCCn1cnc2c(N)ncnc21)OCOC(=O)C(C)(C)C [ADV, adefovir dipivoxil]
- CC50 [1]: 0.468 ± 0.017 mM
- Cytotoxicity - Neutral Red Dye Uptake (HepG 2.2.15; 30 μM (combinations: dose of celgosivir)): 100% ± 2 % of Control
- Cytotoxicity - Neutral Red Dye Uptake (HepG 2.2.15; 100 μM (combinations: dose of celgosivir)): 98% ± 1 % of Control
- Cytotoxicity - Neutral Red Dye Uptake (HepG 2.2.15; 300 μM (combinations: dose of celgosivir)): 73% ± 2 % of Control
- Cytotoxicity - Neutral Red Dye Uptake (HepG 2.2.15; 1000 μM (combinations: dose of celgosivir)): 10% ± 1 % of Control
- HBV Virion DNA Levels (HBV; 0.3 μM ADV, untreated cells 121 pg/mL): 121 ± 13 pg/mL culture medium
- HBV Virion DNA Levels (HBV; 1.0 μM ADV, untreated cells 121 pg/mL): 55 ± 4 pg/mL culture medium
- HBV Virion DNA Levels (HBV; 3.0 μM ADV, untreated cells 121 pg/mL): 11 ± 2 pg/mL culture medium
- HBV Virion DNA Levels (HBV; 10 μM ADV, untreated cells 121 pg/mL): 3 ± 1 pg/mL culture medium
- EC50 (HBV; Hepatitis B virus, HepG2.2.15, Table 3, concentration giving 2-fold reduction in HBV DNA vs untreated cultures, read-out: EC50): 950 ± 105 nM
- EC90 (HBV; Hepatitis B virus, HepG2.2.15, Table 3, concentration giving 10-fold reduction in HBV DNA vs untreated cultures, read-out: EC90): 2800 ± 100 nM
- EC50 (HBV; Hepatitis B virus, HepG2.2.15, Table 5, monotherapy, or celgosivir concentration in combination with ADV, read-out: EC50): 1000 ± 100 nM
- EC90 (HBV; Hepatitis B virus, HepG2.2.15, Table 5, monotherapy, or celgosivir concentration in combination with ADV, read-out: EC90): 3000 ± 100 nM
